# Test system: 855422-203-R-J1-PDC complex spheroids, viability
# Assay: Anticancer human tumor 855422-203-R-J1-PDC patient-derived bladder carcinoma cell line growth inhibition [CLK]
# Conditions: for IC50: curve of first compound; for viability, T/C: stronger effect = lower value
# From the text: A high-throughput screen of multi-cell type tumor spheroids was designed to identify active combinations of […] and targeted small molecules. Complex spheroids include a stromal component modeled by human endothelial cells (HUVEC) and fibroblasts modeled by human mesenchymal stem cells (MSCs). The concentration ranges selected for each drug and investigational agent were based upon clinically achievable concentrations if the clinical Cmax of the agent was known.
# Compounds. The drugs and investigational agents: cirtuvivint (SM08502; NSC835563), CC-671 (NSC850746), vemurafenib (NSC761431), tapotoclax (NSC804041), sotorasib (NSC818433), adagrasib (NSC831453), MRTX-1133 (NSC836407), BAY2416964 (NSC825713), copanlisib (NSC816437), inavolisib (NSC800729), abemaciclib (NSC768073), osimertinib (NSC779217), entinostat (NSC756642), eltanexor (KPT-8602, NSC794443), venetoclax (NSC766270), ceralasertib (NSC777638), bortezomib (NSC756655), olaparib (NSC753686), talazoparib (NSC767125), alisertib (NSC759677), peposertib (NSC802822), gemcitabine (NSC613327), 5-fluorouracil (NSC19893), SN-38 (NSC673596), oxaliplatin (NSC266046), paclitaxel (NSC125973), and doxorubicin (NSC123127), were obtained from the National Cancer Institute (NCI) Developmental Therapeutics Program Chemical Repository. The FDA-approved anticancer drug set is available from the Developmental Therapeutics Program at https://dtp.cancer.gov/organization/dscb/obtaining/available plates.htm. […] The stock solutions were prepared in dimethyl sulfoxide (DMSO, Sigma-Aldrich, St. Louis, MO, cat. D2650), except for the platinum complexes which were prepared in saline (Quality Biological, Gaithersburg, MD, cat. 114-055-101), at 800-fold the tested concentration and stored at -70 degrees C prior to their use. All drugs and investigational agents were tested over a range starting from a high concentration at or near the clinical Cmax and decreasing in half-log increments. If the clinical Cmax for an agent had not been determined, the highest concentration tested was 10 microM.
# Cell Culture. All cells were maintained in an incubator at 37 degrees C and 5% CO2 with 95% humidity. The PDC lines were cultured according to standard operating procedures established by the NCI PDMR. Briefly, all PDCs were thawed and cultured in Matrigel-coated flasks prepared with a working solution of 1X Ham's F-12 nutrient mix, without supplementation (Invitrogen, Waltham, MA, cat. 11765054), 100 U/mL penicillin-streptomycin (Invitrogen, cat. 15140122), and 2.5% Matrigel (Corning Inc., Corning, NY, cat. 354248) for the first three passages. The 947758-054-R-J2-PDC line was cultured in 6B/Colon 1A media, which includes advanced DMEM/F-12 (Thermo Fisher Scientific, cat. 12634028), 10 mM HEPES (Thermo Fisher Scientific, cat. 15630080), 1X GlutaMAX supplement (Thermo Fisher Scientific, cat. 35050061), 0.1 mg/mL primocin (InvivoGen, cat. ant-pm-2), 10% defined fetal bovine serum, heat inactivated (HyClone Laboratories Inc., cat. SH30070.03HI), 1.25 mM N-Acetyl-L-cysteine (Sigma-Aldrich, cat. A9165), 10 mM nicotinamide (Sigma-Aldrich, cat. N0636), 1X B-27 supplement (Thermo Fisher Scientific, cat. 17504044), 1X N-2 supplement (Thermo Fisher Scientific, cat. 17502048), and 10 microM Y-27632 dihydrochloride (Tocris Bioscience, cat. 1254). The 876862-298-R-J1-PDC was cultured in 6E media, which includes all 6B/Colon 1A media components plus 50% L-WRN conditioned media (ATCC, cat. CRL-3276), 50 ng/mL recombinant human EGF recombinant protein (hEGF; Thermo Fisher Scientific, cat. PHG0311), 10 ng/mL recombinant human fibroblast growth factor 10 (hGFG-10; PeproTech, cat. 100-26), 1 ng/mL recombinant human fibroblast growth factor 2 (hFGF-2; PeproTech, cat. 100-18B), and 1 µM prostaglandin E2 (PGE2; Tocris, cat. 2296). The 227483-062-R1-J1-PDC line was cultured in Panc media, containing all 6E components except hFGF-2, with the addition of 500 nM SB-431542 (Selleckchem, cat. S1067) and 10 nM gastrin (Tocris, cat. 3006). […]
# 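Also: spheroids exposed to drugs for seven days before readout.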
# 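For viability, T/C in this document: 100% = DMSO vehicle control wells.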
smiles,measurement,setting,value
CCc1c2c(nc3ccc(O)cc13)-c1cc3c(c(=O)n1C2)COC(=O)[C@]3(O)CC + CNC(=O)c1ccc(Nc2nc(OC3CCCC3)c3c(-c4ccc5nc(C)oc5c4)c[nH]c3n2)c(OC)c1,IC50,second compound 0.0316 µM,3.92 nM
same,IC50,second compound 0.1 µM,< 3.16 nM
same,IC50,second compound 0.316 µM,< 3.16 nM
same,IC50,second compound 1 µM,< 3.16 nM
same,IC50,second compound 3.16 µM,< 3.16 nM
same,IC50,second compound 10 µM,< 3.16 nM
same,"viability, T/C","second compound 0.0316 µM, first compound 0.00316 µM",58.1%
same,"viability, T/C","second compound 0.0316 µM, first compound 0.01 µM",14.6%
same,"viability, T/C","second compound 0.0316 µM, first compound 0.0316 µM",10.3%
same,"viability, T/C","second compound 0.0316 µM, first compound 0.1 µM",4.46%
same,"viability, T/C","second compound 0.0316 µM, first compound 0.316 µM",2.37%
same,"viability, T/C","second compound 0.0316 µM, first compound 1 µM",2.42%
same,"viability, T/C","second compound 0.1 µM, first compound 0.00316 µM",31.4%
same,"viability, T/C","second compound 0.1 µM, first compound 0.01 µM",13.2%
same,"viability, T/C","second compound 0.1 µM, first compound 0.0316 µM",8.17%
same,"viability, T/C","second compound 0.1 µM, first compound 0.1 µM",3.32%
same,"viability, T/C","second compound 0.1 µM, first compound 0.316 µM",2.65%
same,"viability, T/C","second compound 0.1 µM, first compound 1 µM",1.46%
same,"viability, T/C","second compound 0.316 µM, first compound 0.00316 µM",18.2%
same,"viability, T/C","second compound 0.316 µM, first compound 0.01 µM",11.9%
same,"viability, T/C","second compound 0.316 µM, first compound 0.0316 µM",6.3%
same,"viability, T/C","second compound 0.316 µM, first compound 0.1 µM",3.66%
same,"viability, T/C","second compound 0.316 µM, first compound 0.316 µM",2.03%
same,"viability, T/C","second compound 0.316 µM, first compound 1 µM",3.09%
same,"viability, T/C","second compound 1 µM, first compound 0.00316 µM",17.7%
same,"viability, T/C","second compound 1 µM, first compound 0.01 µM",10.2%
same,"viability, T/C","second compound 1 µM, first compound 0.0316 µM",7.3%
same,"viability, T/C","second compound 1 µM, first compound 0.1 µM",4.22%
same,"viability, T/C","second compound 1 µM, first compound 0.316 µM",2.1%
same,"viability, T/C","second compound 1 µM, first compound 1 µM",1.8%
same,"viability, T/C","second compound 3.16 µM, first compound 0.00316 µM",17.8%
same,"viability, T/C","second compound 3.16 µM, first compound 0.01 µM",12.4%
same,"viability, T/C","second compound 3.16 µM, first compound 0.0316 µM",7.84%
same,"viability, T/C","second compound 3.16 µM, first compound 0.1 µM",3.73%
same,"viability, T/C","second compound 3.16 µM, first compound 0.316 µM",2.41%
same,"viability, T/C","second compound 3.16 µM, first compound 1 µM",1.27%
same,"viability, T/C","second compound 10 µM, first compound 0.00316 µM",13.8%
same,"viability, T/C","second compound 10 µM, first compound 0.01 µM",11.1%
same,"viability, T/C","second compound 10 µM, first compound 0.0316 µM",7.08%
same,"viability, T/C","second compound 10 µM, first compound 0.1 µM",5.03%
same,"viability, T/C","second compound 10 µM, first compound 0.316 µM",3.52%
same,"viability, T/C","second compound 10 µM, first compound 1 µM",1.51%

# Reference: PubChem BioAssay AID2060609 (Molecular Pharmacology Branch, DTP, NCI, 2025)
